Columns and labels:
[1] = Storage test in DMSO (LC-MS); assay type: physicochemical; conditions: 20 mM in DMSO, 0, 21, 92 and 99 days at −20° C.
Description: 20 mM Linker-drug 7 was stored in DMSO for 0, 21, 92 and 99 days at −20° C. LC-MS was used to analyze the purity of Linker-drug 7. The condition of LC-MS analysis was as follows.
Column: 4.6 mm×20 mm XBridge C18 column (Waters, Milford USA)
Linear gradient: 5 to 70% solvent B (100% acetonitrile with 0.1% formic acid)
Solvent A (0.1% formic acid in ddH2O)
Solvent B (100% acetonitrile with 0.1% formic acid)

[2] = system: HER2 moderate-expressing breast cancer cell lines JIMT-1 with anti-Herceptin drug resistance; experiment: Potency test, CCK-8 cell viability, JIMT-1; assay type: cell-based; conditions: for IC50: HER2 expression 2+ resistant, 72-120 hours; for In vitro selectivity MDA-MB-468/JIMT-1: ratio of IC50
Description: (§1) Cells were seeded in Corning CellBIND 96-well plates at densities of 6×10^3 cells/well. After incubation overnight at 37° C., 5% CO2 incubator, different concentrations of ADCs were added to the cells in serial dilutions. The cells were then incubated for 72-120 hours at 37° C., 5% CO2 incubator. After 72-120 hours, the old medium was removed and the cells were rinsed once and treated with 10-fold diluted CCK-8 reagent at 37° C. for 4 hours. The 96-well plates were put in the ELISA reader to measure the absorbance wavelength at 450 nm. Cell viability was calculated by the following equation: Cell Viability (%)=(Intensity of sample/Intensity of control)×100%. IC50 values of the ADC samples were calculated using SigmaPlot software.

[3] = system: Endometrial cancer tumor tissue, HER2-positive (+1); experiment: Tumor growth inhibition test: EC PDX model; assay type: in vivo, NODSCID mice; conditions: 10 mg/kg i.v.; Day 12, table head Day 0-60
Description: Endometrial cancer tumor tissue obtained from National Taiwan University was confirmed to be HER2-positive (+1). Tumor (2-3 mm diameter) was subcutaneous implanted to NODSCID mice to test the drug efficacy of ADCs in vivo. When the average tumor size was about 100 mm^3, mice were divided into groups and ADCs were intravenously injected (10 mL/kg B.W. injection volume).

[4] = system: HER2 high-expressing breast cancer cell lines BT-474; experiment: Potency test, CCK-8 cell viability, BT-474; assay type: cell-based; conditions: for IC50: HER2 expression 3+, 72-120 hours; for In vitro selectivity MDA-MB-468/BT-474: ratio of IC50
Description: as §1

[5] = system: HER2-negative cell lines MDA-MB-468; experiment: Potency test, CCK-8 cell viability, MDA-MB-468; assay type: cell-based; conditions: HER2 expression negative, 72-120 hours
Description: as §1

Compound | storage stability (purity by LC-MS) [1] | IC50 ([2]; Table 3) [nM] | IC50 ([2]; Table 4) [nM] | In vitro selectivity MDA-MB-468/JIMT-1 ([2]; Table 3) | In vitro selectivity MDA-MB-468/JIMT-1 ([2]; Table 4) | TGI (%) ± SEM [3] [%] | IC50 ([4]; Table 3) [nM] | IC50 ([4]; Table 4) [nM] | In vitro selectivity MDA-MB-468/BT-474 ([4]; Table 3) | In vitro selectivity MDA-MB-468/BT-474 ([4]; Table 4) | IC50 ([5]; Table 3) [nM] | IC50 ([5]; Table 4) [nM]
CC[C@H](C)[C@@H]([C@@H](CC(=O)C1CCCN1[C@H](OC)[C@@H](C)C(=O)N[C@H](Cc1ccccc1)C(=O)NCCc1ccc(NC(=O)[C@@H](CCCNC(N)=O)NC(=O)[C@@H](NC(=O)COCCOCCOCCOCCNC(=O)c2ccc(NC(=O)CCl)c(NC(=O)CCl)c2)C(C)C)cc1)OC)N(C)C(=O)[C@H](NC(=O)[C@H](C(C)C)N(C)C)C(C)C (stereo partly drawn) [Linker-drug 7] | stable when dissolved in DMSO |  |  |  |  |  |  |  |  |  |  | 
ado-trastuzumab emtansine [Kadcyla] |  | 15.5 | 27 | 1 | 0.30 | 26.5±10.1 | 2.27 | 0.31 | 5.5 | 26.16 | 15.2 | 8.11
